The record followed here is ChEMBL document CHEMBL3217685, “Quantitative affinity-based chemical proteomics of TrkA inhibitors” (Medchemcomm, 2012).

A value given as a limit tells only on which side of the number the result lay.

In data set [1] the target is T1, High affinity nerve growth factor receptor (Homo sapiens, UniProt P04629). In words: Inhibition of TrkA (unknown origin).
For data set [2], the target named is T1, High affinity nerve growth factor receptor. Nature of the data set: Inhibition of TrkA (unknown origin) by cell-based assay.
Data set [3] concerns the target T2, BDNF/NT-3 growth factors receptor (Homo sapiens, UniProt Q16620). In words: Inhibition of TrkB (unknown origin).
The target in data set [4] is T2, BDNF/NT-3 growth factors receptor. Nature of the data set: Inhibition of TrkB (unknown origin) by cell-based assay.
A short description of data set [5]: Apparent permeability from apical side to basolateral side of MDCK cells. Particulars: dog. Type of data set: ADME, cell-based, Canis lupus familiaris.
A short description of data set [6]: Apparent permeability from basolateral side to apical side of MDCK cells. Type of data set: ADME, cell-based, Canis lupus familiaris. Particulars: dog.

T1 sequence (P04629 whole entry): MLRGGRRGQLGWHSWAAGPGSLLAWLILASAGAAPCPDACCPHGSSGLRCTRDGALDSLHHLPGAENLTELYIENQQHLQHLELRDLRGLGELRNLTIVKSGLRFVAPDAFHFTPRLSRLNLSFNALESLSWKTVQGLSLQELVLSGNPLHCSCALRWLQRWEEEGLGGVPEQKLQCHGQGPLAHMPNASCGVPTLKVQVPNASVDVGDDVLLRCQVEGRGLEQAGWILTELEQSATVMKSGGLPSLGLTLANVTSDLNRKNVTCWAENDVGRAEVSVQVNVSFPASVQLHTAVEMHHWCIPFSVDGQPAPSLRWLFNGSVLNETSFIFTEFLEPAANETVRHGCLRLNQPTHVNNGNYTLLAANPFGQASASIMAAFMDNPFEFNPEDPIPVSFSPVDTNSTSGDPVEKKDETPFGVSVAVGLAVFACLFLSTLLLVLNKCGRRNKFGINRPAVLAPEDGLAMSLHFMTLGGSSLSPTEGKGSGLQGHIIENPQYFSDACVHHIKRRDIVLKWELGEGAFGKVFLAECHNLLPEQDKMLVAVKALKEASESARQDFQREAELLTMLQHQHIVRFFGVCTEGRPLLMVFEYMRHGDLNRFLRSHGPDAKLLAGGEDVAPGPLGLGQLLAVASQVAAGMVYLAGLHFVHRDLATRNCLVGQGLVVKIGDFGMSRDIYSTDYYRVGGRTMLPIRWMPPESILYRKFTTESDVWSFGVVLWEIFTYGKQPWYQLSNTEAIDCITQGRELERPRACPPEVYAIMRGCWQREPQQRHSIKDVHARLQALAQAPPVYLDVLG
T2 sequence (Q16620 whole entry): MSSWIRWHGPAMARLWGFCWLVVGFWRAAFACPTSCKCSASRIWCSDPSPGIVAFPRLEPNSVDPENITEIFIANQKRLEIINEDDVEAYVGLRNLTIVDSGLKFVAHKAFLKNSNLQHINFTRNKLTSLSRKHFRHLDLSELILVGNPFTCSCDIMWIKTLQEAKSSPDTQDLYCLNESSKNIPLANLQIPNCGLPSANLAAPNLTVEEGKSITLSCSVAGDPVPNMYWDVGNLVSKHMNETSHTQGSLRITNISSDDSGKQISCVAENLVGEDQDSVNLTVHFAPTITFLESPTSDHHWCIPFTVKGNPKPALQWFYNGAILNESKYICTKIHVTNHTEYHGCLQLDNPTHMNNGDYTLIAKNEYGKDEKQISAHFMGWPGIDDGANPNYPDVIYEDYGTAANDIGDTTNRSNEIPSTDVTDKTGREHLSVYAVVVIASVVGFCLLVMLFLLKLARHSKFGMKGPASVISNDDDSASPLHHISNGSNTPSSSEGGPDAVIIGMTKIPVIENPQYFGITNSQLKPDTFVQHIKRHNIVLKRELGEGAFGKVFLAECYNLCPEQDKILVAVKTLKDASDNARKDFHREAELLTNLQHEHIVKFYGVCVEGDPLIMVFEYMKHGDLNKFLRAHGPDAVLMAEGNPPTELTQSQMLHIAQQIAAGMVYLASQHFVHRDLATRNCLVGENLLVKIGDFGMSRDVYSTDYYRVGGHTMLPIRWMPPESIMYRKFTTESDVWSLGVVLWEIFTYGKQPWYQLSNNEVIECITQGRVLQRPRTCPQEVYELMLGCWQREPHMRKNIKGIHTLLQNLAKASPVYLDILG

On to `CC(C)[C@H](CO)Nc1nc(Nc2ccc(C(=O)O)c(Cl)c2)c2ncn(C(C)C)c2n1` [PURVALANOL B], for which the IC50 stood at 51 nM in data set [1], 1710 nM in data set [2], 11 nM in data set [3] and 1300 nM in data set [4]. For the same molecule, the apparent permeability from apical to basolateral (Papp A→B) in data set [5] was 1.1 ×10⁻⁶ cm/s. Moreover, the Papp B→A in data set [6] was less than 5 ×10⁻⁶ cm/s.

In general, IC50 refers to the point on the concentration scale where inhibition reaches its midpoint. A high value points to lower potency. A word on the Papp A→B: it is the apparent permeability from the apical to the basolateral side of a cell layer. Broadly, the Papp B→A is the apparent permeability from the basolateral to the apical side of a cell layer.
